Measured values: patent US12473304B2, “Heterocyclic PAD4 inhibitors” (BRISTOL-MYERS SQUIBB COMPANY, priority 2020, dated 2025)
pIC50: −log10 of the molar value.

target: human PAD4 (hPAD4) (Homo sapiens (Human), UniProt Q9UM07); assay: RFMS Human PAD4 Functional Assay 1; format: biochemical; settings: RFMS assay 1; 5 nM hPAD4, 250 μM BAEE substrate, 50 μM calcium, 37° C.
Experimental: RFMS Human PAD4 Functional Assay 1:
Compounds were solubilized in 100% DMSO to achieve all) mM compound concentration. Compound stock solutions were stored at RT. A series of dilutions were prepared in DMSO and mixed 8 times with 20 μL mixing volume. Final top concentration of compound in the assay is 50 μM. Final assay conditions were as follows: • Reaction volume: 26 μl • Assay buffer: 25 mM hepes, pH 7.5, 5 mM NaCl, 1 mM DTT, 0.2 mg/ml BSA, 0.01% CHAPS, 50 μM Calcium, and 5 μM TPEN • Final concentrations: 5 nM hPAD4 enzyme, 250 μM BASE, and 0.5% DMSO • Total incubation time: 30 mins compound and enzyme preincubation at 37° C., 90 min enzyme/substrate reaction, 30 min reaction with phenyl glyoxal at 37° C. • Stop solution: 40 μl 5% TCA in ACN
0.13 μL of compound solution was added to 13 μL of 10 nM PAD4 in assay buffer. After 30 min 13 μl of 500 μM of BAEE was added in 25 mM hepes, pH 7.5, 5 mM NaCl, 1 mM DTT, 0.2 mg/ml BSA, 0.01% CHAPS, 50 μM Calcium, 5 μM TPEN was added and the reaction incubated for 90 min at 37° C. The enzymatic reaction was quenched by addition of 15 μl of 6.1N TCA, 100% Final Concentration is 20%, 35 μl of 8.5 mM phenyl glyoxal (final concentration 4 mM) is then added and the reaction is incubated for 30 min at 37° C.
After 30 minutes the plates are spun down to remove all precipitate. The enzyme reaction was quenched with an equal volume of methanol containing internal standard (modified citrulline). Samples were loaded onto the Rapid Fire RF300 system (Agilent) wherein they were first sipped for 1000 ms and then directly loaded to a C18 separations cartridge using a mixture of acetonitrile containing 0.01% formic acid for 3000 ms desalting. The flow rate of the mobile phase was 1.5 ml/min. Once the samples were eluted from the cartridge, a mobile phase of acetonitrile containing 0.01% formic acid was used to move the samples into the mass spectrometer for 4000 ms at a flow rate of 1.25 ml/min/Sciex API5500 triple quadrupole mass spectrometer (Applied Biosystems) equipped with ESI was used to analyze the peptidyl citrulline and internal standard ions.
MRM transition of product and internal standard were monitored at m/z 424.5 to 350.4 and m/z 293 to 247 respectively. The dwell time for each transition was set at 200 ms, and the ESI voltage was used at 5500 with a source temperature of 400° C. Extracted ion peaks for each transition were integrated using the Rapid Fire Integrator software. Peak area of analyte was normalized with internal standard.).

Chain of human PAD4 (hPAD4) (Q9UM07 whole entry): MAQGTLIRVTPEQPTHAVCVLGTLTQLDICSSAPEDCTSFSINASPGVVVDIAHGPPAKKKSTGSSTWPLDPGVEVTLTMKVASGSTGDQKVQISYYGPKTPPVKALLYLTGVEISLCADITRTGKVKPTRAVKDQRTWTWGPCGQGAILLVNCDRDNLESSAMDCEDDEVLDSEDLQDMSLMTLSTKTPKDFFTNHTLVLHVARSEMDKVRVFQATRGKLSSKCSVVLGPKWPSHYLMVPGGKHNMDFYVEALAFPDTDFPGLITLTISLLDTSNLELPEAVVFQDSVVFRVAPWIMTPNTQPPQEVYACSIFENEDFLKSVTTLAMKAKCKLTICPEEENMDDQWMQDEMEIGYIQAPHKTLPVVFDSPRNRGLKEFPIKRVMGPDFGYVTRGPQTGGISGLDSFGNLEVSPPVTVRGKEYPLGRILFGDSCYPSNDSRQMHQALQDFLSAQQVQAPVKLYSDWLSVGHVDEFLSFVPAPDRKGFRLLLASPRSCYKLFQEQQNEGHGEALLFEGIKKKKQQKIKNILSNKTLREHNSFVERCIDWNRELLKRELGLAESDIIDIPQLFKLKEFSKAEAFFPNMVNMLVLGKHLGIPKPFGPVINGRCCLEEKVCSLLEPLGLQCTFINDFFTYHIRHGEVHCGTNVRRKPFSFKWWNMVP

Row | pIC50 | Compound
1 | 6.60 | COc1cc(C(=O)N2C[C@H](N)C[C@@H](F)C2)cn2nc(-c3cc4cccc(C5CCN(C(=O)C6CC(O)C6)CC5)c4n3CC3CC3)c(C)c12 (single isomer, unassigned) [Example 393]
2 | 8.00 | COc1cc(C(=O)N2C[C@H](N)C[C@@H](F)C2)cn2nc(-c3cc4cccc(C5CCN(C(=O)C6CCCO6)CC5)c4n3CC3CC3)c(C)c12 (single isomer, unassigned) [Example 394]
3 | 6.96 | COc1cc(C(=O)N2CCC[C@@H](N)C2)cn2nc(-c3cc4cccc(C5CCN(C(=O)C6CC(O)C6)CC5)c4n3CC3CC3)c(C)c12 (single isomer, unassigned) [Example 396]
4 | 7.40 | COc1cc(C(=O)N2C[C@H](N)C[C@@H](F)C2)cn2nc(-c3cc4cccc(C5CCN(C(=O)C6CCCO6)CC5)c4n3CC3CC3)c(C)c12 (single isomer, unassigned) [Example 397]
5 | 6.60 | Cc1c(-c2cc3cc(F)cc(C4CCN(C(=O)C5CCCO5)CC4)c3n2CC2CC2)nn2cc(C(=O)N3CCC[C@@H](N)C3)ccc12 (single isomer, unassigned) [Example 488]
6 | 7.15 | Cc1c(-c2cc3cc(F)cc(C4CCN(C(=O)C5CCCO5)CC4)c3n2CC2CC2)nn2cc(C(=O)N3CCC[C@@H](N)C3)ccc12 (single isomer, unassigned) [Example 489]
7 | 6.82 | Cc1c(-c2cc3cc(F)cc(C4CCN(C(=O)C5CCCO5)CC4)c3n2CC2CC2)nn2cc(C(=O)N3C[C@H](N)C[C@@H](F)C3)ccc12 (single isomer, unassigned) [Example 490]
8 | 5.88 | Cc1c(-c2cc3cc(F)cc(C4CCN(C(=O)C5CCCO5)CC4)c3n2CC2CC2)nn2cc(C(=O)N3C[C@H](N)C[C@@H](F)C3)ccc12 (single isomer, unassigned) [Example 491]
9 | 6.80 | COc1cc(C(=O)N2CCC[C@@H](N)C2)cn2nc(-c3cc4cccc(OCC5CC(=O)N(C)C5)c4n3CC3CC3)c(C)c12 (single isomer, unassigned) [Example 551]
10 | 7.00 | COc1cc(C(=O)N2CCC[C@@H](N)C2)cn2nc(-c3cc4cccc(OCC5CC(=O)N(C)C5)c4n3CC3CC3)c(C)c12 (single isomer, unassigned) [Example 552]
11 | 7.05 | COc1cc(C(=O)N2C[C@H](N)C[C@@H](F)C2)cn2nc(-c3cc4cccc(OCC5CC(=O)N(C)C5)c4n3CC3CC3)c(C)c12 (single isomer, unassigned) [Example 553]
12 | 7.22 | COc1cc(C(=O)N2C[C@H](N)C[C@@H](F)C2)cn2nc(-c3cc4cccc(OCC5CC(=O)N(C)C5)c4n3CC3CC3)c(C)c12 (single isomer, unassigned) [Example 554]
13 | 6.85 | COc1cc(C(=O)N2CCC[C@@H](N)C2)cn2nc(-c3cc4cccc(OCC5CNC(=O)C5)c4n3CC3CC3)c(C)c12 (single isomer, unassigned) [Example 562]
14 | 7.15 | COc1cc(C(=O)N2C[C@H](N)C[C@@H](F)C2)cn2nc(-c3cc4cccc(OCC5CNC(=O)C5)c4n3CC3CC3)c(C)c12 (single isomer, unassigned) [Example 563]
15 | 7.40 | COc1cc(C(=O)N2CCC[C@@H](N)C2)cn2nc(-c3cc4cccc(OCC5CNC(=O)C5)c4n3CC3CC3)c(C)c12 (single isomer, unassigned) [Example 564]
16 | 7.70 | COc1cc(C(=O)N2C[C@H](N)C[C@@H](F)C2)cn2nc(-c3cc4cccc(OCC5CNC(=O)C5)c4n3CC3CC3)c(C)c12 (single isomer, unassigned) [Example 565]
17 | 8.00 | Cc1c(-c2cc3cccc(OCC4CNC(=O)C4)c3n2CC2CC2)nn2cc(C(=O)N3CCC[C@@H](N)C3)cc(F)c12 (single isomer, unassigned) [Example 566]

Row | pIC50 | Compound
18 | 7.70 | Cc1c(-c2cc3cccc(OCC4CNC(=O)C4)c3n2CC2CC2)nn2cc(C(=O)N3C[C@H](N)C[C@@H](F)C3)cc(F)c12 (single isomer, unassigned) [Example 567]
19 | 7.52 | Cc1c(-c2cc3cccc(OCC4CNC(=O)C4)c3n2CC2CC2)nn2cc(C(=O)N3CCC[C@@H](N)C3)cc(F)c12 (single isomer, unassigned) [Example 571]
20 | 7.10 | Cc1c(-c2cc3cccc(OCC4CNC(=O)C4)c3n2CC2CC2)nn2cc(C(=O)N3C[C@H](N)C[C@@H](F)C3)cc(F)c12 (single isomer, unassigned) [Example 572]
21 | 6.96 | Cc1c(-c2cc3cccc(OCC4CNC(=O)C4)c3n2CC2CC2)nn2cc(C(=O)N3C[C@H](N)C[C@@H](F)C3)ccc12 (single isomer, unassigned) [Example 573]
22 | 6.72 | Cc1c(-c2cc3cccc(OCC4CC(=O)N(C)C4)c3n2CC2CC2)nn2cc(C(=O)N3CCC[C@@H](N)C3)ccc12 (single isomer, unassigned) [Example 576]
23 | 6.82 | Cc1c(-c2cc3cccc(OCC4CC(=O)N(C)C4)c3n2CC2CC2)nn2cc(C(=O)N3C[C@H](N)C[C@@H](F)C3)ccc12 (single isomer, unassigned) [Example 577]
24 | 6.72 | Cc1c(-c2cc3cccc(OCC4CC(=O)N(C)C4)c3n2CC2CC2)nn2cc(C(=O)N3CCC[C@@H](N)C3)ccc12 (single isomer, unassigned) [Example 578]
25 | 6.62 | Cc1c(-c2cc3cccc(OCC4CC(=O)N(C)C4)c3n2CC2CC2)nn2cc(C(=O)N3C[C@H](N)C[C@@H](F)C3)ccc12 (single isomer, unassigned) [Example 579]
26 | 6.64 | Cc1c(-c2cc3cccc(OCC4CNC(=O)C4)c3n2CC2CC2)nn2cc(C(=O)N3CCC[C@@H](N)C3)ccc12 (single isomer, unassigned) [Example 588]
27 | 7.22 | Cc1c(-c2cc3cccc(OCC4CNC(=O)C4)c3n2CC2CC2)nn2cc(C(=O)N3CCC[C@@H](N)C3)ccc12 (single isomer, unassigned) [Example 589]
28 | 7.52 | Cc1c(-c2cc3cccc(OCC4CNC(=O)C4)c3n2CC2CC2)nn2cc(C(=O)N3C[C@H](N)C[C@@H](F)C3)ccc12 (single isomer, unassigned) [Example 590]
29 | 7.52 | COc1cc(C(=O)N2CCC[C@@H](N)C2)cn2nc(-c3cc4ccnc(OCC5CNC(=O)C5)c4n3CC3CC3)c(C)c12 (single isomer, unassigned; isomer 1) [Example 591]
30 | 7.52 | COc1cc(C(=O)N2C[C@H](N)C[C@@H](F)C2)cn2nc(-c3cc4ccnc(OCC5CNC(=O)C5)c4n3CC3CC3)c(C)c12 (single isomer, unassigned; isomer 1) [Example 601]
31 | 7.15 | COc1cc(C(=O)N2CC3CCC2[C@@H]3N)cn2nc(-c3cc4ccnc(OCC5CNC(=O)C5)c4n3CC3CC3)c(C)c12 (single isomer, unassigned; isomer 1) [Example 605]
32 | 7.22 | Cc1c(-c2cc3ccnc(OCC4CNC(=O)C4)c3n2CC2CC2)nn2cc(C(=O)N3C[C@H](N)C[C@@H](F)C3)ccc12 (single isomer, unassigned; isomer 1) [Example 614]
33 | 7.30 | Cc1c(-c2cc3ccnc(OCC4CNC(=O)C4)c3n2CC2CC2)nn2cc(C(=O)N3CCC[C@@H](N)C3)ccc12 (single isomer, unassigned; isomer 1) [Example 618]
34 | 7.52 | COc1cc(C(=O)N2C[C@H](N)C[C@@H](F)C2)cn2nc(-c3cc4ccnc(OCC5CNC(=O)C5)c4n3CC3CC3)c(C)c12 (single isomer, unassigned; isomer 2) [Example 602]
